# Laboratory results reported in patent EP2603503B1, “DABIGATRAN ETEXILATE BISMESYLATE SALT, SOLID STATE FORMS AND PROCESS FOR PREPARATION THEREOF” (ratiopharm GmbH, priority 2010, dated 2012).
# Structures can show the parent of a compound that is named as a salt. Where two headings read alike, the source gives them in different places.
# Experiments:
# [1] = solubility in water; assay type: physicochemical
# [2] = storage stability (temperature / relative humidity); assay type: physicochemical; conditions: at least two weeks
# [3] = temperature not stated; cited from earlier work
compound,measurement,setting,value
CCCCCCOC(=O)NC(=N)c1ccc(NCc2nc3cc(C(=O)N(CCC(=O)OCC)c4ccccn4)ccc3n2C)cc1 [Dabigatran etexilate bismesylate],solubility in water at 37 °C,[1],33.9 mg/mL
same,stable upon storage,"[2]; about 25°C, relative humidity (RH) about 60%",stable
same,stable upon storage,"[2]; about 40°C, RH about 75%",stable
"CCCCCCOC(=O)NC(=N)c1ccc(NCc2nc3cc(C(=O)N(CCC(=O)OCC)c4ccccn4)ccc3n2C)cc1 [Dabigatran etexilate monomesylate, ethyl 3-{[(2-{[(4-{N'-[(hexyloxy)carbonyl]carbamimidoyl}phenyl)amino]methyl}-1-methyl-1H-benzimid-azol-5-yl)carbonyl] (2-pyridinyl)amino}propanoate mesylate salt, reference compound]",solubility in water at 37 °C,[1]; mesylate salt,14.7 mg/mL
"CCCCCCOC(=O)NC(=N)c1ccc(NCc2nc3cc(C(=O)N(CCC(=O)OCC)c4ccccn4)ccc3n2C)cc1 [Dabigatran etexilate, Ethyl 3-[(2-{[4-(hexyloxycarbonylaminoiminomethyl)phenylamino]methyl}-1-methyl-1H-benzimidazole-5-carbonyl)pyridin-2-ylamino]propionate base]",solubility in water,[3],1.8 mg/mL
